Tests used:
[1] = biological target: T1, full-length hSIRT1 wild-type (Homo sapiens, UniProt Q96EB6); experiment: SIRT1 activation and inhibition assays (OAcADPr mass spectrometry assay), wild-type enzyme; type: biochemical
T1 construct: Full-length human SIRT1 (hSIRT1) proteins were expressed with a C-terminal His6 tag; His6 (C); made in house
T1 sequence (Q96EB6 1-747): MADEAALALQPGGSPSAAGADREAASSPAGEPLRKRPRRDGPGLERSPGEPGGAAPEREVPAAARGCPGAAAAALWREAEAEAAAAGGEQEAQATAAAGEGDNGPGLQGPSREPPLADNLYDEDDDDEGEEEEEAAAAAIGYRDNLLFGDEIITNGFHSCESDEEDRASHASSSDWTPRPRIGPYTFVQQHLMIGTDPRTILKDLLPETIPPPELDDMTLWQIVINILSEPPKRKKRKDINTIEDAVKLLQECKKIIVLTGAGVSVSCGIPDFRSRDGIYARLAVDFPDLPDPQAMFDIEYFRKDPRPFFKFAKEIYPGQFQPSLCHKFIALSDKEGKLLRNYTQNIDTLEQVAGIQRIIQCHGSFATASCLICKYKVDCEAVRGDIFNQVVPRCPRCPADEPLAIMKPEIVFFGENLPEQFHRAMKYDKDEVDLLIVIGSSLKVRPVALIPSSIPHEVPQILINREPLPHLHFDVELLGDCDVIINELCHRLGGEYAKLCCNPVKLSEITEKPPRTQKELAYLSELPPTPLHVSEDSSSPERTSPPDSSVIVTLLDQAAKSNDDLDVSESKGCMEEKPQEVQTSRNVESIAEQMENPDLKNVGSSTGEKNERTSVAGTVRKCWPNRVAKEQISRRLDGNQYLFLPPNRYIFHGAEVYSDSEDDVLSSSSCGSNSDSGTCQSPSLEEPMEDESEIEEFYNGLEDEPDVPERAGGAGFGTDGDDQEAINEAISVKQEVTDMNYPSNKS
Method: Final concentrations of the PNC1/GDH coupling system components used were 20 units/mL bovine GDH (Sigma-Aldrich), 1 uM yeast PNC1, 3.4 mM a-ketoglutarate, and 220 μM NADH or NADPH. An extinction coefficient of 6.22 mM^−1 cm^−1 and a pathlength of 0.81 cm was used to convert the absorbance at 340 nm to product concentration for the 150 uL reactions used.
Substrate KM determinations were performed by varying one substrate concentration at a fixed, saturating concentration of the second substrate. SIRT1 activation and inhibition assays were run in reaction buffer with 0.05% BSA at 25° C. and analyzed using the OAcADPr assay. Enzyme and compound were pre-incubated for 20 minutes before addition of substrates. […] The dose-dependence of five compounds was tested and the fold-activation data were described by Eq. 1
[formula] where vx/v0 is the ratio of the reaction rate in the presence (vx) versus absence (v0) of activator (X), RVmax is the relative velocity at infinite activator concentration, EC50 is the concentration of activator required to produce one-half RVmax and b is the minimum value of vx/v0.

[2] = biological target: T2, SIRT1 (Homo sapiens, UniProt Q96EB6); experiment: Trp mass spectrometry assay of SIRT1 activation; type: biochemical; settings: for TRP Activity (EC1.5) / Emax: Trp peptide assay; for TRP Activity (EC1.5): EC1.5 = concentration that results in 150% activation of SIRT1; for Emax: maximum activity relative to control (100%), read-out: TRP MAX RESP (percent maximum fold activation)
T2 sequence (Q96EB6 1-747): T1 sequence (Q96EB6 1-747)
How it was run: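 Activation read-out: mass-spec measurement of O-acetyl-ADP-ribose or deacetylated Trp peptide versus compound-free controls, giving EC1.5 and Percent Maximum Activation. Reactions ran 25 min at 25 °C, pH 7.5, with 120 μM βNAD+, 0.5 μM acetylated p53-derived peptide and 10 nM His-tagged SIRT1.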

[3] = concentration giving 150% activation of SIRT1, Trp peptide substrate
[4] = Trp mass spectrometry assay, EC1.5 = concentration of test compound that results in 150% activation of SIRT1
[5] = Trp peptide substrate, concentration giving 150% activation of SIRT1
[6] = Trp mass spectrometry assay, concentration of test compound giving 150% activation of SIRT1

## Cc1cnc2c(NC(=O)N3c4nc(-c5cccc(C(F)(F)F)c5)ccc4N4CC[C@H]3C4)cccc2n1 [Example 8]
[1]
  RVmax fold shift: 1.00

## O=C(Nc1ccccn1)N1c2nc(-c3cccc(C(F)(F)F)c3)ccc2N2CC[C@H]1C2 [Example 7]
[1]
  RVmax fold shift: 1.00

## Cc1cncc(-c2ccc3c(n2)N(C(=O)Nc2cnccn2)[C@H]2CCN3C2)c1 [(9S)-5-(5-methylpyridin-3-yl)-N-(pyrazin-2-yl)-1,6,8-triazatricyclo[7.2.1.0 {2,7}]dodeca-2(7),3,5-triene-8-carboxamide]
[2]
  TRP Activity (EC1.5): B (B (EC1.5 1-25 μM))
  Emax: > 150%

## O=C(Nc1cc(-c2cnco2)ccn1)N1c2nc(-c3cccc(Cl)c3)ccc2N2C[C@@H](O)[C@H]1C2 [Example 685]
[2]; [3]
  Tryp AVG EC1.5 (μM): B (B (EC1.5 1-25 μM))

## CC(C)(C)OC(=O)NCCCc1ccc(NC(=O)N2c3nc(-c4cccc(C(F)(F)F)c4)ccc3N3CC[C@H]2C3)cc1-c1cnco1 [Example 750]
[2]; [3]
  Tryp AVG EC1.5 (μM): A (A (EC1.5<1 μM))

## CC(C)(C)OC(=O)NCCCc1ccc(NC(=O)N2c3nc(-c4cccc(C(F)(F)F)c4)ccc3N3CCC[C@H]2C3)cc1-c1cnco1 [Example 752]
[2]; [3]
  Tryp AVG EC1.5 (μM): A (A (EC1.5<1 μM))

## O=C(Nc1cnccn1)N1c2nc(-c3cncc(F)c3)ccc2N2CCC1CC2 [Example 555]
[2]; [4]
  Tryp AVG EC1.5 (μM): B (B (EC1.5 1-25 μM))

## O=C(Nc1cccnc1)N1c2nc(-c3cccnc3)ccc2N2CCC[C@H]1C2 [Example 455]
[2]; [4]
  Tryp AVG EC1.5 (μM): B (B (EC1.5 1-25 μM))

## CCCC(=O)c1cccc(NC(=O)N2c3nc(-c4cccc(C(F)(F)F)c4)ccc3N3CC[C@H]2C3)c1 [Example 736]
[2]; [3]
  Tryp AVG EC1.5 (μM): A (A (EC1.5<1 μM))

## CCOc1ncc(-c2ccc3c(n2)N(C(=O)Nc2cnccn2)[C@H]2CCN3C2)cc1C#N [(9S)-5-(5-cyano-6-ethoxypyridin-3-yl)-N-(pyrazin-2-yl)-1,6,8-triazatricyclo[7.2.1.0^{2,7}]dodeca-2(7),3,5-triene-8-carboxamide]
[2]
  TRP Activity (EC1.5): C (C (EC1.5>25 μM))
  Emax: < 150%

## O=C(O)c1cc(NC(=S)NCc2ccc(NC(=O)N3c4nc(-c5cccc(C(F)(F)F)c5)ccc4N4CCC[C@H]3C4)cc2)ccc1-c1c2ccc(=O)cc-2oc2cc(O)ccc12 [Example 563]
[2]; [4]
  Tryp AVG EC1.5 (μM): A (A (EC1.5<1 μM))

## CS(=O)(=O)Nc1cccc(-c2ccc3c(n2)N(C(=O)Nc2cnccn2)[C@H]2CCN3C2)c1 [Example 418]
[2]; [4]
  Tryp AVG EC1.5 (μM): B (B (EC1.5 1-25 μM))

## Cc1cnccc1NC(=O)N1c2nc(C3CCCC(C(F)(F)F)C3)ccc2N2CC[C@H]1C2 (stereo partly drawn) [Example 100]
[2]; [5]
  Tryp AVG EC1.5 (μM): B (B (EC1.5 1-25 μM))

## COCC(C)NC(=O)c1ccc2c(n1)N(C(=O)Nc1ccccn1)[C@H]1CCN2C1 (stereo partly drawn) [(9S)-5-N-(1-methoxypropan-2-yl)-8-N-(pyridin-2-yl)-1,6,8-triazatricyclo[7.2.1.0^{2,7}]dodeca-2(7),3,5-triene-5,8-dicarboxamide]
[2]
  TRP Activity (EC1.5): B (B (EC1.5 1-25 μM))
  Emax: > 150%

## O=C(Nc1cc(-c2cnco2)cc(-c2cnco2)c1)N1c2nc(-c3cccc(C(F)(F)F)c3)ccc2N2CC[C@H]1C2 [Example 743]
[2]; [3]
  Tryp AVG EC1.5 (μM): A (A (EC1.5<1 μM))

## Cc1ccc(-c2ccc3c(n2)N(C(=O)NC2CCOC2)[C@H]2CCN3C2)cn1 (stereo partly drawn) [(9S)-5-(6-methylpyridin-3-yl)-N-(oxolan-3-yl)-1,6,8-triazatricyclo[7.2.1.0 {2,7}]dodeca-2,4,6-triene-8-carboxamide]
[2]
  TRP Activity (EC1.5): C (C (EC1.5>25 μM))
  Emax: < 150%

## Cc1cc(-c2ccc3c(n2)N(C(=O)Nc2ccn(C)n2)[C@H]2CCN3C2)ccn1 [(9S)-N-(1-methyl-1H-pyrazol-3-yl)-5-(2-methylpyridin-4-yl)-1,6,8-triazatricyclo[7.2.1.0 {2,7}]dodeca-2,4,6-triene-8-carboxamide]
[2]
  TRP Activity (EC1.5): B (B (EC1.5 1-25 μM))
  Emax: > 150%

## O=C(Nc1ccc2c(c1)OCCCO2)N1c2nc(-c3cccc(C(F)(F)F)c3)ccc2N2CC[C@H]1C2 [Example 95]
[2]; [5]
  Tryp AVG EC1.5 (μM): A (A (EC1.5<1 μM))

## O=C(Nc1nnc(-c2ccncc2)s1)N1c2nc(-c3cccc(C(F)(F)F)c3)ccc2N2CC[C@H]1C2 [Example 733]
[2]; [3]
  Tryp AVG EC1.5 (μM): A (A (EC1.5<1 μM))

## COc1cc(NC(=O)N2c3nc(-c4cccc(N(C)C)c4)ccc3N3CCC[C@H]2C3)ncn1 [Example 385]
[2]; [6]
  Tryp AVG EC1.5 (μM): A (A (EC1.5<1 μM))

## O=C(Nc1ccccn1)N1c2nc(-c3cccc(Cl)c3)ccc2N2C[C@@H](O)[C@H]1C2 [Example 675]
[2]; [3]
  Tryp AVG EC1.5 (μM): B (B (EC1.5 1-25 μM))

## CCc1cnc(NC(=O)N2c3nc(-c4ccnc(C)c4)ccc3N3CC[C@H]2C3)cn1 [(9S)-N-(5-ethylpyrazin-2-yl)-5-(2-methylpyridin-4-yl)-1,6,8-triazatricyclo[7.2.1.0 {2,7}]dodeca-2(7),3,5-triene-8-carboxamide]
[2]
  TRP Activity (EC1.5): A (A (EC1.5<1 μM))
  Emax: > 150%

## Cc1cncc(NC(=O)N2c3nc(-c4ccnc(C)c4)ccc3N3CC[C@H]2C3)c1 [(9S)-N-(5-methylpyridin-3-yl)-5-(2-methylpyridin-4-yl)-1,6,8-triazatricyclo[7.2.1.0 {2,7}]dodeca-2(7),3,5-triene-8-carboxamide]
[2]
  TRP Activity (EC1.5): B (B (EC1.5 1-25 μM))
  Emax: > 150%

## O=C(NCCCCc1ccccc1)N1c2nc(-c3cccc(C(F)(F)F)c3)ccc2N2CC[C@H]1C2 [Example 600]
[2]; [4]
  Tryp AVG EC1.5 (μM): B (B (EC1.5 1-25 μM))

## COc1cc(NC(=O)N2c3nc(-c4cnccc4C)ccc3N3CCC[C@H]2C3)ncn1 [Example 511]
[2]; [4]
  Tryp AVG EC1.5 (μM): C (C (EC1.5>25 μM))

## C[C@@H]1CN(c2ccc3c(n2)N(C(=O)Nc2cnccn2)[C@H]2CCN3C2)CCN1 [(9S)-5-[(3R)-3-methylpiperazin-1-yl]-N-(pyrazin-2-yl)-1,6,8-triazatricyclo[7.2.1.0 {2,7}]dodeca-2,4,6-triene-8-carboxamide]
[2]
  TRP Activity (EC1.5): C (C (EC1.5>25 μM))
  Emax: < 150%

## Cc1cc(-c2ccc3c(n2)N(C(=O)Nc2cc(-c4cnco4)ccn2)[C@H]2CCN3C2)ccn1 [Example 746]
[2]; [3]
  Tryp AVG EC1.5 (μM): A (A (EC1.5<1 μM))

## N=C(N)NCc1ccc(NC(=O)N2c3nc(-c4cccc(C(F)(F)F)c4)ccc3N3CCC[C@H]2C3)cc1 [Example 777]
[2]; [3]
  Tryp AVG EC1.5 (μM): A (A (EC1.5<1 μM))

## N#Cc1cccc(-c2ccc3c(n2)N(C(=O)Nc2ccccn2)[C@H]2CCCN3C2)c1 [Example 348]
[2]; [6]
  Tryp AVG EC1.5 (μM): A (A (EC1.5<1 μM))

## O=C(Nc1cccc(C2CCNC2)c1)N1c2nc(-c3cccc(C(F)(F)F)c3)ccc2N2CC[C@H]1C2 (stereo partly drawn) [Example 593]
[2]; [4]
  Tryp AVG EC1.5 (μM): A (A (EC1.5<1 μM))

## Cc1cc(-c2ccc3c(n2)N(C(=O)N[C@H](C)c2ccccn2)[C@H]2CCN3C2)ccn1 [(9S)-5-(2-methylpyridin-4-yl)-N-[(1R)-1-(pyridin-2-yl)ethyl]-1,6,8-triazatricyclo[7.2.1.0 {2,7}]dodeca-2,4,6-triene-8-carboxamide]
[2]
  TRP Activity (EC1.5): C (C (EC1.5>25 μM))
  Emax: < 150%

## O=C(Nc1cccnc1)N1c2nc(C3CCCC(C(F)(F)F)C3)ccc2N2CC[C@H]1C2 (stereo partly drawn) [Example 99]
[2]; [5]
  Tryp AVG EC1.5 (μM): A (A (EC1.5<1 μM))

## O=C(Nc1cncc(F)c1)N1c2nc(-c3cncc(C(F)(F)F)c3)ccc2N2C[C@@H](O)[C@H]1C2 [Example 691]
[2]; [3]
  Tryp AVG EC1.5 (μM): B (B (EC1.5 1-25 μM))

## Cc1ccc(-c2ccc3c(n2)N(C(=O)NCC(F)(F)F)[C@H]2CCN3C2)cn1 [(9S)-5-(6-methylpyridin-3-yl)-N-(2,2,2-trifluoroethyl)-1,6,8-triazatricyclo[7.2.1.0^{2,7}]dodeca-2(7),3,5-triene-8-carboxamide]
[2]
  TRP Activity (EC1.5): B (B (EC1.5 1-25 μM))
  Emax: > 150%

## Cc1noc(C)c1-c1ccc2c(n1)N(C(=O)Nc1cnccn1)[C@H]1CCN2C1 [Example 413]
[2]; [6]
  Tryp AVG EC1.5 (μM): C (C (EC1.5>25 μM))
